# What was measured:
# PKCδ = assay: Immunoblot of PKCδ tyrosine phosphorylation in ParC5 cells treated with hydrogen peroxide; format: cell-based, rat; conditions: ParC5 cells pre-treated 30 mins prior to hydrogen peroxide
# ParC5 cells = assay: Irradiation-induced apoptosis (caspase-3 activity) in ParC5 cells; format: cell-based, rat; conditions: parC5 cells pre-treated 30 mins prior to 10 Gy irradiation; harvested after 18 hrs; p<0.05
# Description: Cells were harvested after an additional 18 hrs and casapase 3 activity were measured.
structure (smiles),measurement,setting,value
Cc1ccc(NC(=O)c2ccc(CN3CCN(C)CC3)cc2)cc1Nc1nccc(-c2cccnc2)n1 [imatinib],"phosphorylation of PKCδ at Y64, Y155 and Y311",PKCδ,inhibited phosphorylation of PKCδ at Y155 only
same,apoptosis (caspase 3 activity),ParC5 cells,significant protection from apoptosis

# — US10076520B2, “Use of tyrosine kinase inhibitor in cancer treatment” (THE REGENTS OF THE UNIVERSITY OF COLORADO, A BODY CORPORATE, priority 2013, dated 2018)
